Source: patent US9834558B2, “Substituted bridged urea analogs as sirtuin modulators” (GLAXOSMITHKLINE LLC, priority 2013, dated 2017)

Target: T1, SIRT1 (Homo sapiens, UniProt Q96EB6)
T1 sequence (Q96EB6 1-747): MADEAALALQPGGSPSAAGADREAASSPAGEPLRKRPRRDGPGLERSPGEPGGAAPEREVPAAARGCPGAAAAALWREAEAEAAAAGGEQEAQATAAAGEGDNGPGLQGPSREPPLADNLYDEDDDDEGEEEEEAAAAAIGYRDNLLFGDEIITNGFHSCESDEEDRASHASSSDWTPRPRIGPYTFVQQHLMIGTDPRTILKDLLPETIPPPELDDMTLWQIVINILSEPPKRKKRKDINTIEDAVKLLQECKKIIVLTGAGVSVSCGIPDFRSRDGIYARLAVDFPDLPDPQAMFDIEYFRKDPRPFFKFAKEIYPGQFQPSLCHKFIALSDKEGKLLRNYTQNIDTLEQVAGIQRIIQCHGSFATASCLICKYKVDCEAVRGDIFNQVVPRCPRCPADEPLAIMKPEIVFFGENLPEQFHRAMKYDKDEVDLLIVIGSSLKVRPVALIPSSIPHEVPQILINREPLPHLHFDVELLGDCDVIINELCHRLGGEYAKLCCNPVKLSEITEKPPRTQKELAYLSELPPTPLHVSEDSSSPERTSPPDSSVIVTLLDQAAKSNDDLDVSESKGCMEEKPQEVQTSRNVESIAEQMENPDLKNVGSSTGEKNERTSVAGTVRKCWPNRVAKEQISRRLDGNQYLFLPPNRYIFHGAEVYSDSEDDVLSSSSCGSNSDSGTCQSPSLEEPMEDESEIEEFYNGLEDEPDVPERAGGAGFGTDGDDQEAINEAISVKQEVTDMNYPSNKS
Test: Trp mass spectrometry assay of SIRT1 activation
Assay type: biochemical
Conditions: for TRP Activity (EC1.5): EC1.5 = concentration that results in 150% activation of SIRT1; for Emax: read-out: TRP MAX RESP (percent maximum fold activation)
Outline: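 N-terminal His-tagged human SIRT1 (10 nM, E. coli BL21(DE3)) with 0.5 μM Ac-RHKK(Ac)W-NH2 peptide and 120 μM βNAD+, 25 min at 25 °C in HEPES pH 7.5, formic acid stop. OAADPR or deacetylated peptide quantified by mass spectrometry; EC1.5 (50% activity increase over control) and Percent Maximum Activation reported.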

[1] = Trp mass spectrometry assay, EC1.5 = concentration of test compound that results in 150% activation of SIRT1
[2] = concentration giving 150% activation of SIRT1, Trp peptide substrate
[3] = Trp peptide assay, maximum activity relative to control (100%)
[4] = Trp mass spectrometry assay, concentration of test compound giving 150% activation of SIRT1
[5] = Trp peptide substrate, concentration giving 150% activation of SIRT1

COc1cc(NC(=O)N2c3nc(-c4ccccc4C#N)ccc3N3CCC[C@H]2C3)ncn1 [Example 440]
Tryp AVG EC1.5 (μM) [1]: C (C (EC1.5>25 μM))

O=C(Nc1cccc(-c2cnco2)n1)N1c2nc(-c3cccc(C(F)(F)F)c3)ccc2N2CC[C@H]1C2 [Example 588]
Tryp AVG EC1.5 (μM) [1]: A (A (EC1.5<1 μM))

CS(=O)(=O)N1CCCN(c2ccc3c(n2)N(C(=O)Nc2ccncn2)[C@H]2CCCN3C2)CC1 [Example 433]
Tryp AVG EC1.5 (μM) [1]: B (B (EC1.5 1-25 μM))

Cc1ccc(-c2ccc3c(n2)N(C(=O)Nc2nc(C)c(C)s2)[C@H]2CCCN3C2)cn1 [Example 506]
Tryp AVG EC1.5 (μM) [1]: A (A (EC1.5<1 μM))

O=C(Nc1cccnc1)N1c2nc(-c3cccc(Cl)c3)ccc2N2CCC1CC2 [Example 496]
Tryp AVG EC1.5 (μM) [1]: A (A (EC1.5<1 μM))

O=C(Nc1cccc(-c2cnco2)c1)N1c2cc(-c3cccc(C(F)(F)F)c3)ccc2N2CC[C@H]1C2 [Example 786]
Tryp AVG EC1.5 (μM) [2]: B (B (EC1.5 1-25 μM))

O=C(Nc1cccnn1)N1c2nc(-c3cccc(Cl)c3)ccc2N2CC[C@H]1C2 [Example 822]
Tryp AVG EC1.5 (μM) [2]: A (A (EC1.5<1 μM))

O=C(Nc1ccccn1)N1c2nc(N3CCC[C@@H](C(F)(F)F)C3)ccc2N2CC[C@H]1C2 [(9S)-N-(pyridin-2-yl)-5-[(3R)-3-(trifluoromethyl)piperidin-1-yl]-1,6,8-triazatricyclo[7.2.1.0 {2,7}]dodeca-2,4,6-triene-8-carboxamide]
TRP Activity (EC1.5) (Trp peptide assay): B (B (EC1.5 1-25 μM)) | Emax [3]: > 150%

C#CCNc1nccc(NC(=O)N2c3nc(-c4cccc(C5(C(F)(F)F)N=N5)c4)ccc3N3CC[C@H]2C3)n1 [Example 804]
Tryp AVG EC1.5 (μM) [2]: A (A (EC1.5<1 μM))

Cc1cc(-c2ccc3c(n2)N(C(=O)Nc2nc(C)c(C)s2)[C@H]2CCCN3C2)ccn1 [(9S)-N-(dimethyl-1,3-thiazol-2-yl)-5-(2-methylpyridin-4-yl)-1,6,8-triazatricyclo[7.3.1.0 {2,7}]trideca-2(7),3,5-triene-8-carboxamide]
TRP Activity (EC1.5) (Trp peptide assay): A (A (EC1.5<1 μM)) | Emax [3]: > 150%

O=C(Nc1cnccn1)N1c2nc(-c3cccc(N4CCOCC4)c3)ccc2N2CCC[C@H]1C2 [Example 560]
Tryp AVG EC1.5 (μM) [1]: B (B (EC1.5 1-25 μM))

O=C(NCCO)c1ccc2c(n1)N(C(=O)Nc1ccccn1)[C@H]1CCN2C1 [(9S)-5-N-(2-hydroxyethyl)-8-N-(pyridin-2-yl)-1,6,8-triazatricyclo[7.2.1.0^{2,7}]dodeca-2(7),3,5-triene-5,8-dicarboxamide]
TRP Activity (EC1.5) (Trp peptide assay): B (B (EC1.5 1-25 μM)) | Emax [3]: > 150%

Cc1n[nH]cc1-c1ccc2c(n1)N(C(=O)Nc1ccccn1)[C@H]1CCN2C1 [Example 370]
Tryp AVG EC1.5 (μM) [4]: B (B (EC1.5 1-25 μM))

O=C(Nc1cnccn1)N1c2nc(-c3cncc(F)c3)ccc2N2CCC[C@H]1C2 [Example 432]
Tryp AVG EC1.5 (μM) [1]: B (B (EC1.5 1-25 μM))

O=C(Nc1cncc(OC[C@H](O)CO)n1)N1c2nc(-c3cccc(C(F)(F)F)c3)ccc2N2CC[C@H]1C2 [(9S)-N-{6-[(2R)-2,3-dihydroxypropoxy]pyrazin-2-yl}-5-[3-(trifluoromethyl)phenyl]-1,6,8-triazatricyclo[7.2.1.0 {2,7}]dodeca-2(7),3,5-triene-8-carboxamide]
TRP Activity (EC1.5) (Trp peptide assay): A (A (EC1.5<1 μM)) | Emax [3]: > 150%

O=C(Nc1cccnc1)N1c2nc(-c3cccc(Cl)c3)ccc2N2CCC[C@H]1C2 [Example 407]
Tryp AVG EC1.5 (μM) [4]: A (A (EC1.5<1 μM))

O=C(Nc1ccccn1)N1c2nc(-c3cncc(C(F)(F)F)c3)ccc2N2C[C@@H](O)[C@H]1C2 [Example 694]
Tryp AVG EC1.5 (μM) [2]: A (A (EC1.5<1 μM))

CC(C)(C)OC(=O)NCC#Cc1ccc(NC(=O)N2c3nc(-c4cccc(C(F)(F)F)c4)ccc3N3CCC[C@H]2C3)cc1-c1cnco1 [Example 753]
Tryp AVG EC1.5 (μM) [2]: A (A (EC1.5<1 μM))

O=C(Nc1cncc(F)c1)N1c2nc(-c3cncc(Cl)c3)ccc2N2CCC1CC2 [Example 545]
Tryp AVG EC1.5 (μM) [1]: B (B (EC1.5 1-25 μM))

O=C(Nc1cccnc1)N1c2nc(-c3cc[nH]n3)ccc2N2CC[C@H]1C2 [Example 493]
Tryp AVG EC1.5 (μM) [1]: B (B (EC1.5 1-25 μM))

O=C(Nc1cc(-c2cnco2)ccn1)N1c2nc(-c3cccc(C(F)(F)F)c3)ccc2N2C[C@@H](O)[C@H]1C2 [Example 662]
Tryp AVG EC1.5 (μM) [2]: B (B (EC1.5 1-25 μM))

O=C(Nc1cccc(-c2cnco2)c1)N1c2nc(-c3cncc(F)c3)ccc2N2CCC1CC2 [Example 574]
Tryp AVG EC1.5 (μM) [1]: A (A (EC1.5<1 μM))

COc1cc(NC(=O)N2c3nc(-c4ccnc(N5CCC(F)(F)C5)c4)ccc3N3CC[C@H]2C3)ncn1 [Example 390]
Tryp AVG EC1.5 (μM) [4]: B (B (EC1.5 1-25 μM))

O=C(Nc1cccc(-c2cnco2)n1)N1c2nc(-c3cccc(C(F)(F)F)c3)ccc2N2C[C@@H](O)[C@H]1C2 [Example 698]
Tryp AVG EC1.5 (μM) [2]: A (A (EC1.5<1 μM))

Cc1nc(NC(=O)N2c3nc(-c4cncc(F)c4)ccc3N3CCC2CC3)sc1C [Example 577]
Tryp AVG EC1.5 (μM) [1]: B (B (EC1.5 1-25 μM))

C#Cc1ccc(NC(=O)N2c3nc(-c4cccc(C5(C(F)(F)F)N=N5)c4)ccc3N3CC[C@H]2C3)nc1 [Example 803]
Tryp AVG EC1.5 (μM) [2]: A (A (EC1.5<1 μM))

O=C(Nc1ccncc1Cl)N1c2nc(-c3cccc(C(F)(F)F)c3)ccc2N2CC[C@H]1C2 [Example 96]
Tryp AVG EC1.5 (μM) [5]: B (B (EC1.5 1-25 μM))

O=C(NCCCN1CCOCC1)N1c2nc(-c3cccc(C(F)(F)F)c3)ccc2N2CC[C@H]1C2 [Example 612]
Tryp AVG EC1.5 (μM) [1]: B (B (EC1.5 1-25 μM))

O=C(CCCCCNC(=O)c1ccc2c(c1)C(=O)OC21c2ccc(O)cc2Oc2cc(O)ccc21)NCc1ncc(-c2cccc(NC(=O)N3c4nc(-c5cccc(C(F)(F)F)c5)ccc4N4CC[C@H]3C4)c2)o1 [Example 708]
Tryp AVG EC1.5 (μM) [2]: A (A (EC1.5<1 μM))

O=C(Nc1ccccn1)N1c2nc(N3CCC[C@H](C(F)(F)F)C3)ccc2N2CCC[C@H]1C2 [drawing 1118, (9S)-N-(pyridin-2-yl)-5-[(3S)-3-(trifluoromethyl)piperidin-1-yl]-1,6,8-triazatricyclo[7.3.1.0 {2,7}]trideca-2(7),3,5-triene-8-carboxamide]
TRP Activity (EC1.5) (Trp peptide assay): A (A (EC1.5<1 μM)) | TRP MAX RESP (percent maximum fold activation) [3]: A (A (Fold activation ≧150%))

O=C(Nc1ccc(F)cn1)N1c2nc(N3CCCC(C(F)(F)F)C3)ccc2N2CCC[C@H]1C2 (stereo partly shown) [Example 359]
Tryp AVG EC1.5 (μM) [4]: A (A (EC1.5<1 μM))

O=C(Nc1cncc(F)c1)N1c2nc(-c3cccc(C(F)(F)F)c3)ccc2N2C[C@@H](O)[C@H]1C2 [Example 630]
Tryp AVG EC1.5 (μM) [2]: A (A (EC1.5<1 μM))

NS(=O)(=O)c1ccc(NC(=O)N2c3nc(-c4cccc(C(F)(F)F)c4)ccc3N3CC[C@H]2C3)cc1 [Example 643]
Tryp AVG EC1.5 (μM) [2]: A (A (EC1.5<1 μM))

O=C(Nc1ccccn1)N1c2nc(N3CCC[C@@H]3C(F)(F)F)ccc2N2CCC[C@H]1C2 [(9S)-N-(pyridin-2-yl)-5-[(2R)-2-(trifluoromethyl)pyrrolidin-1-yl]-1,6,8-triazatricyclo[7.3.1.0 {2,7}]trideca-2(7),3,5-triene-8-carboxamide]
TRP Activity (EC1.5) (Trp peptide assay): A (A (EC1.5<1 μM)) | Emax [3]: > 150%

CCN(CC)C(=O)N1c2nc(-c3cccc(C(F)(F)F)c3)ccc2N2CC[C@H]1C2 [Example 52]
Tryp AVG EC1.5 (μM) [5]: C (C (EC1.5>25 μM))

Cc1cc(-c2ccc3c(n2)N(C(=O)Nc2cnc4c(c2)OCCO4)[C@H]2CCN3C2)ccn1 [(9S)-N-{2H,3H-[1,4]dioxino[2,3-b]pyridin-7-yl}-5-(2-methylpyridin-4-yl)-1,6,8-triazatricyclo[7.2.1.0 {2,7}]dodeca-2,4,6-triene-8-carboxamide]
TRP Activity (EC1.5) (Trp peptide assay): B (B (EC1.5 1-25 μM)) | Emax [3]: > 150%

CCOc1cnc(NC(=O)N2c3nc(-c4ccnc(C)c4)ccc3N3CC[C@H]2C3)cn1 [(9S)-N-(5-ethoxypyrazin-2-yl)-5-(2-methylpyridin-4-yl)-1,6,8-triazatricyclo[7.2.1.0 {2,7}]dodeca-2(7),3,5-triene-8-carboxamide]
TRP Activity (EC1.5) (Trp peptide assay): B (B (EC1.5 1-25 μM)) | Emax [3]: > 150%

O=C(Nc1cnccn1)N1c2nc(-c3ccc(C4CC4)nc3)ccc2N2CC[C@H]1C2 [(9S)-5-(6-cyclopropylpyridin-3-yl)-N-(pyrazin-2-yl)-1,6,8-triazatricyclo[7.2.1.0 {2,7}]dodeca-2(7),3,5-triene-8-carboxamide]
TRP Activity (EC1.5) (Trp peptide assay): B (B (EC1.5 1-25 μM)) | Emax [3]: > 150%

CC[C@@H]1CN(c2ccc3c(n2)N(C(=O)Nc2cnccn2)[C@H]2CCN3C2)CCO1 [(9S)-5-[(2R)-2-ethylmorpholin-4-yl]-N-(pyrazin-2-yl)-1,6,8-triazatricyclo[7.2.1.0^{2,7}]dodeca-2(7),3,5-triene-8-carboxamide]
TRP Activity (EC1.5) (Trp peptide assay): B (B (EC1.5 1-25 μM)) | Emax [3]: > 150%
